Measured values from US20230398130A1, “METHODS AND COMPOSITIONS FOR DIFFERENTIATING STEM CELLS” (Massachusetts Institute of Technology, priority 2020, published 2023).

Experiments:
ISC-enriched organoids [1] = test: Primary screen, 384-well 2.5-D organoid differentiation (ENR+CD, 6 days): basal lysozyme secretion (LYZ.NS); type: cell-based, murine; conditions: for Dose.FC.LYZ.NS (log 2 fold change) / Dose.FC.LYZ.NS (log 2 fold change, basal lysozyme secretion): vs plate median
Excerpt: (§1) High-throughput screening.

ISC-enriched organoids [2] = test: Primary screen, 384-well 2.5-D organoid differentiation (ENR+CD, 6 days): carbachol-induced lysozyme secretion (LYZ.S); type: cell-based, murine; conditions: vs plate median; for Dose.FC.LYZ.S (log 2 fold change): primary screen
Excerpt: as §1

ISC-enriched organoids [3] = test: Primary screen, 384-well 2.5-D organoid differentiation (ENR+CD, 6 days, Target Selective Inhibitor Library, vs whole-plate median): ATP (CellTiter-Glo 3D, CTG); conditions: for Dose.FC.CTG (log 2 fold change) / Dose.FC.CTG (log 2 fold change, ATP): vs plate median

Row | Structure (SMILES) | Z.LYZ.NS (standard z score) (ISC-enriched organoids [1]; dose 0.08 uM) | Dose.FC.LYZ.NS (log 2 fold change, basal lysozyme secretion) (ISC-enriched organoids [1]; dose 0.08 uM) | Z.LYZ.NS (standard z score) (ISC-enriched organoids [1]; dose 0.40 uM) | Dose.FC.LYZ.NS (log 2 fold change, basal lysozyme secretion) (ISC-enriched organoids [1]; dose 0.40 uM) | Z.LYZ.NS (standard z score) (ISC-enriched organoids [1]; dose 2.00 uM) | Dose.FC.LYZ.NS (log 2 fold change, basal lysozyme secretion) (ISC-enriched organoids [1]; dose 2.00 uM) | Z.LYZ.NS (standard z score) (ISC-enriched organoids [1]; dose 10.00 uM) | Dose.FC.LYZ.NS (log 2 fold change, basal lysozyme secretion) (ISC-enriched organoids [1]; dose 10.00 uM) | Dose.FC.LYZ.S (log 2 fold change, carbachol-induced lysozyme secretion) (ISC-enriched organoids [2]; dose 0.08 uM) | Dose.FC.LYZ.S (log 2 fold change, carbachol-induced lysozyme secretion) (ISC-enriched organoids [2]; dose 0.40 uM) | Dose.FC.LYZ.S (log 2 fold change, carbachol-induced lysozyme secretion) (ISC-enriched organoids [2]; dose 2.00 uM) | Dose.FC.LYZ.S (log 2 fold change, carbachol-induced lysozyme secretion) (ISC-enriched organoids [2]; dose 10.00 uM) | Z.CTG (standard z score) (ISC-enriched organoids [3]; dose 0.08 uM) | Dose.FC.CTG (log 2 fold change, ATP) (ISC-enriched organoids [3]; dose 0.08 uM) | Z.CTG (standard z score) (ISC-enriched organoids [3]; dose 0.40 uM) | Dose.FC.CTG (log 2 fold change, ATP) (ISC-enriched organoids [3]; dose 0.40 uM) | Z.CTG (standard z score) (ISC-enriched organoids [3]; dose 2.00 uM) | Dose.FC.CTG (log 2 fold change, ATP) (ISC-enriched organoids [3]; dose 2.00 uM) | Z.CTG (standard z score) (ISC-enriched organoids [3]; dose 10.00 uM) | Dose.FC.CTG (log 2 fold change, ATP) (ISC-enriched organoids [3]; dose 10.00 uM) | also measured
1 | COc1ccc(C(=O)Nc2sc3c(c2C(N)=O)CCCC3)cc1OC [TCS 359] | – | – | – | – | – | – | – | – | – | – | – | – | – | – | – | – | – | – | – | – | Z.LYZ.NS (standard z score) (ISC-enriched organoids [1]; Dose 0.08 uM, primary screen): 0.742; Dose.FC.LYZ.NS (log 2 fold change) (ISC-enriched organoids [1]; Dose 0.08 uM, primary screen): 0.085; Z.LYZ.NS (standard z score) (ISC-enriched organoids [1]; Dose 0.40 uM, primary screen): 0.502; Dose.FC.LYZ.NS (log 2 fold change) (ISC-enriched organoids [1]; Dose 0.40 uM, primary screen): 0.058; Z.LYZ.NS (standard z score) (ISC-enriched organoids [1]; Dose 2.00 uM, primary screen): 0.156; Dose.FC.LYZ.NS (log 2 fold change) (ISC-enriched organoids [1]; Dose 2.00 uM, primary screen): 0.018; Z.LYZ.NS (standard z score) (ISC-enriched organoids [1]; Dose 10.00 uM, primary screen): −0.072; Dose.FC.LYZ.NS (log 2 fold change) (ISC-enriched organoids [1]; Dose 10.00 uM, primary screen): −0.008; Dose.FC.LYZ.S (log 2 fold change) (ISC-enriched organoids [2]; Dose 0.08 uM): 0.098; Dose.FC.LYZ.S (log 2 fold change) (ISC-enriched organoids [2]; Dose 0.40 uM): 0.069; Dose.FC.LYZ.S (log 2 fold change) (ISC-enriched organoids [2]; Dose 2.00 uM): −0.006; Dose.FC.LYZ.S (log 2 fold change) (ISC-enriched organoids [2]; Dose 10.00 uM): 0.026; Z.CTG (standard z score) (ISC-enriched organoids [3]; Dose 0.08 uM, primary screen): 0.358; Dose.FC.CTG (log 2 fold change) (ISC-enriched organoids [3]; Dose 0.08 uM, primary screen): 0.150; Z.CTG (standard z score) (ISC-enriched organoids [3]; Dose 0.40 uM, primary screen): 0.598; Dose.FC.CTG (log 2 fold change) (ISC-enriched organoids [3]; Dose 0.40 uM, primary screen): 0.250; Z.CTG (standard z score) (ISC-enriched organoids [3]; Dose 2.00 uM, primary screen): 0.119; Dose.FC.CTG (log 2 fold change) (ISC-enriched organoids [3]; Dose 2.00 uM, primary screen): 0.050; Z.CTG (standard z score) (ISC-enriched organoids [3]; Dose 10.00 uM, primary screen): −0.212; Dose.FC.CTG (log 2 fold change) (ISC-enriched organoids [3]; Dose 10.00 uM, primary screen): −0.089
2 | Nc1nc(N)c2nc(-c3cccc(O)c3)c(-c3cccc(O)c3)nc2n1 [TG100-115] | 1.812 | 0.208 | −0.223 | −0.026 | 0.025 | 0.003 | −0.223 | −0.026 | 0.073 | 0.032 | −0.019 | −0.100 | −0.611 | −0.256 | 0.158 | 0.066 | −0.031 | −0.013 | −0.277 | −0.116 | –
3 | NC(=O)Nc1sc(-c2ccc(F)cc2)cc1C(N)=O [TPCA-1] | 0.627 | 0.072 | −0.413 | −0.047 | −0.514 | −0.059 | −1.711 | −0.197 | 0.041 | −0.029 | −0.054 | −0.294 | −0.146 | −0.061 | −0.010 | −0.004 | −0.012 | −0.005 | −1.269 | −0.531 | –
4 | Nc1cccc(-c2cc3c(Oc4cccc(O)c4)ncnc3[nH]2)c1 [TWS119] | 0.820 | 0.094 | 0.327 | 0.038 | 0.304 | 0.035 | −2.027 | −0.233 | 0.207 | 0.142 | 0.044 | −0.283 | 0.784 | 0.328 | 0.796 | 0.333 | 0.169 | 0.071 | −2.866 | −1.200 | –
5 | COc1cc2c(N3CCN(C(=O)Nc4ccc(OC(C)C)cc4)CC3)ncnc2cc1OCCCN1CCCCC1 [Tandutinib (MLN518)] | – | – | – | – | – | – | – | – | – | – | – | – | – | – | – | – | – | – | – | – | Z.LYZ.NS (standard z score) (ISC-enriched organoids [1]; Dose 0.08 uM, primary screen): 0.828; Dose.FC.LYZ.NS (log 2 fold change) (ISC-enriched organoids [1]; Dose 0.08 uM, primary screen): 0.095; Z.LYZ.NS (standard z score) (ISC-enriched organoids [1]; Dose 0.40 uM, primary screen): 1.066; Dose.FC.LYZ.NS (log 2 fold change) (ISC-enriched organoids [1]; Dose 0.40 uM, primary screen): 0.122; Z.LYZ.NS (standard z score) (ISC-enriched organoids [1]; Dose 2.00 uM, primary screen): 1.012; Dose.FC.LYZ.NS (log 2 fold change) (ISC-enriched organoids [1]; Dose 2.00 uM, primary screen): 0.116; Z.LYZ.NS (standard z score) (ISC-enriched organoids [1]; Dose 10.00 uM, primary screen): 0.407; Dose.FC.LYZ.NS (log 2 fold change) (ISC-enriched organoids [1]; Dose 10.00 uM, primary screen): 0.047; Dose.FC.LYZ.S (log 2 fold change) (ISC-enriched organoids [2]; Dose 0.08 uM): 0.145; Dose.FC.LYZ.S (log 2 fold change) (ISC-enriched organoids [2]; Dose 0.40 uM): 0.178; Dose.FC.LYZ.S (log 2 fold change) (ISC-enriched organoids [2]; Dose 2.00 uM): 0.093; Dose.FC.LYZ.S (log 2 fold change) (ISC-enriched organoids [2]; Dose 10.00 uM): 0.100; Z.CTG (standard z score) (ISC-enriched organoids [3]; Dose 0.08 uM, primary screen): 1.397; Dose.FC.CTG (log 2 fold change) (ISC-enriched organoids [3]; Dose 0.08 uM, primary screen): 0.585; Z.CTG (standard z score) (ISC-enriched organoids [3]; Dose 0.40 uM, primary screen): 0.845; Dose.FC.CTG (log 2 fold change) (ISC-enriched organoids [3]; Dose 0.40 uM, primary screen): 0.354; Z.CTG (standard z score) (ISC-enriched organoids [3]; Dose 2.00 uM, primary screen): 0.856; Dose.FC.CTG (log 2 fold change) (ISC-enriched organoids [3]; Dose 2.00 uM, primary screen): 0.358; Z.CTG (standard z score) (ISC-enriched organoids [3]; Dose 10.00 uM, primary screen): 1.401; Dose.FC.CTG (log 2 fold change) (ISC-enriched organoids [3]; Dose 10.00 uM, primary screen): 0.586
6 | CO[C@H]1C[C@@H]2CC[C@@H](C)[C@@](O)(O2)C(=O)C(=O)N2CCCC[C@H]2C(=O)O[C@H]([C@H](C)C[C@@H]2CC[C@@H](OC(=O)C(C)(CO)CO)[C@H](OC)C2)CC(=O)[C@H](C)/C=C(\C)[C@@H](O)[C@@H](OC)C(=O)[C@H](C)C[C@H](C)/C=C/C=C/C=C/1C [Temsirolimus (CCI-779, NSC 683864)] | – | – | – | – | – | – | 1.035 | 0.119 | – | – | – | 0.153 | – | – | – | – | – | – | 0.478 | 0.200 | Z.LYZ.NS (standard z score) (ISC-enriched organoids [1]; Dose 0.08 uM, primary screen): 0.790; Dose.FC.LYZ.NS (log 2 fold change) (ISC-enriched organoids [1]; Dose 0.08 uM, primary screen): 0.091; Z.LYZ.NS (standard z score) (ISC-enriched organoids [1]; Dose 0.40 uM, primary screen): 0.763; Dose.FC.LYZ.NS (log 2 fold change) (ISC-enriched organoids [1]; Dose 0.40 uM, primary screen): 0.088; Z.LYZ.NS (standard z score) (ISC-enriched organoids [1]; Dose 2.00 uM, primary screen): 1.494; Dose.FC.LYZ.NS (log 2 fold change) (ISC-enriched organoids [1]; Dose 2.00 uM, primary screen): 0.172; Dose.FC.LYZ.S (log 2 fold change) (ISC-enriched organoids [2]; Dose 0.08 uM): 0.082; Dose.FC.LYZ.S (log 2 fold change) (ISC-enriched organoids [2]; Dose 0.40 uM): 0.152; Dose.FC.LYZ.S (log 2 fold change) (ISC-enriched organoids [2]; Dose 2.00 uM): 0.132; Z.CTG (standard z score) (ISC-enriched organoids [3]; Dose 0.08 uM, primary screen): 1.228; Dose.FC.CTG (log 2 fold change) (ISC-enriched organoids [3]; Dose 0.08 uM, primary screen): 0.514; Z.CTG (standard z score) (ISC-enriched organoids [3]; Dose 0.40 uM, primary screen): 1.393; Dose.FC.CTG (log 2 fold change) (ISC-enriched organoids [3]; Dose 0.40 uM, primary screen): 0.583; Z.CTG (standard z score) (ISC-enriched organoids [3]; Dose 2.00 uM, primary screen): 1.382; Dose.FC.CTG (log 2 fold change) (ISC-enriched organoids [3]; Dose 2.00 uM, primary screen): 0.578
7 | C[C@H](Cn1cnc2c(N)ncnc21)OCP(=O)(O)O [Tenofovir] | 0.673 | 0.077 | −0.662 | −0.076 | −1.153 | −0.132 | −1.899 | −0.218 | 0.045 | −0.080 | −0.171 | −0.271 | 0.045 | 0.019 | −0.200 | −0.084 | −0.308 | −0.129 | −0.804 | −0.337 | –
8 | CN(C)CCCCC(=O)Nc1ccc(NC(=S)NC(=O)c2ccc(C(C)(C)C)cc2)cc1 [Tenovin-6] | 1.050 | 0.121 | −0.463 | −0.053 | −1.686 | −0.194 | −1.671 | −0.192 | 0.028 | −0.109 | −0.328 | −0.344 | 0.165 | 0.069 | −1.209 | −0.506 | −2.654 | −1.111 | −3.414 | −1.429 | –
9 | O=C(NCc1ccccc1)c1csc(Nc2ccncn2)n1 [Thiazovivin] | 0.780 | 0.090 | 0.611 | 0.070 | 0.205 | 0.024 | −0.605 | −0.069 | 0.142 | 0.060 | 0.064 | 0.037 | 0.337 | 0.141 | 0.271 | 0.113 | 0.746 | 0.312 | 0.451 | 0.189 | –
